According to patent US20060223812A1, “Treating neurodegenerative conditions” (MAX-PLANCK-GESELLSCHAFT ZUR FORDERUNGDER WISSENSCHAFTEN, …, priority 2004, published 2006):

Target: htau40 and tubulin dimer (Homo sapiens, UniProt P10636)
Assay: Light scattering, tau-promoted microtubule assembly
Assay type: biochemical
Details: 60 μM compound, 10 μM tau, 30 μM tubulin
Method: The repeat domain of tau is not only important for PHF aggregation but also for the physiological function of microtubule binding. Microtubule polymerisation assays were performed in the absence and presence of compounds (FIG. 9).
The ability of tau to promote microtubule assembly was monitored by light scattering at 350 nm in a Tecan spectrophotometer model Safire (Tecan, Crailsheim, Germany). Tau protein (10 μM) was mixed with tubulin dimer (30 μM) and GTP (1 mM) at 4° C. in polymerisation buffer (100 mM Na-PIPES pH 6.9, 1 mM EGTA, 1 mM MgSO4, 1 mM DTT), with a final volume of 40 μl. Htau40 and inhibitor compounds (60 μM) were added last. After rapid mixing, the samples were pipetted into a Greiner transparent flat bottom 384 well plate (4 mm path length), which was prewarmed at 37° C. The reaction was started by incubating the cooled components of the reaction at 37° C. The assembly of tubulin into microtubules was monitored over time by a change in turbidity. Three parameters were extracted from curves. The maximum turbidity at steady state, the rate of assembly, and the lag time between the temperature jump and the start of the turbidity rise.
FIG. 9: Effect of compounds on microtubule binding 30 μM tubulin dimer was incubated in a microtiter plate at 37° C. in the absence and presence of htau40 (10 μM) and 60 μM compound. Absorbance was taken at 350 nm and plotted versus time. […]

Sequence of htau40 and tubulin dimer (P10636 1-441 isoform P10636-8): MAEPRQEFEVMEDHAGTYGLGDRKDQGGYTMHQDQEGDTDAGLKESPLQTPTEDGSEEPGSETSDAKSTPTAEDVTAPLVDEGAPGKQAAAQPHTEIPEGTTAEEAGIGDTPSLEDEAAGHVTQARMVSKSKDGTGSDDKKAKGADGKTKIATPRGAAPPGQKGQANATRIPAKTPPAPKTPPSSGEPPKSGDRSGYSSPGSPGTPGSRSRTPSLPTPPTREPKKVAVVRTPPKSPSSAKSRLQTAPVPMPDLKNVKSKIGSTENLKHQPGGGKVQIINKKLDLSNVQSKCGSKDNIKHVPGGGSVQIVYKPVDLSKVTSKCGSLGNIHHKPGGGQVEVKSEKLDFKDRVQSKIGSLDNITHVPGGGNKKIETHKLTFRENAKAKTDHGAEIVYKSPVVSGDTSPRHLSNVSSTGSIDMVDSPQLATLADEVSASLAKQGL

Nc1c(/N=N/c2ccc(-c3ccc(/N=N/c4cc(S(=O)(=O)O)c5ccccc5c4N)cc3)cc2)cc(S(=O)(=O)O)c2ccccc12 [Congo Red]
rate and extent of microtubule polymerisation: not significantly affected
